Experimental data as given in patent US8513271B2, “Pyrimidine compounds as delta opioid receptor modulators” (Janssen Pharmaceutica, NV, priority 2009, dated 2013).
Where “and” joins values, the source holds several entries; their conditions need not be identical. Equal values may be shown once. Read-outs that look alike come from different tables or passages of the source.

Experiments:
delta opioid receptor [1] = target: T1, delta opioid receptor (Rattus norvegicus, UniProt P33533); test: Rat brain delta opioid receptor binding assay; conditions: rat forebrain
T1 construct: the forebrains were homogenized in Tris buffer in a Teflon®-glass homogenizer; from tissue; host or cells: forebrain of male Wistar rats, particulate (membrane) preparation
T1 sequence (P33533 whole entry): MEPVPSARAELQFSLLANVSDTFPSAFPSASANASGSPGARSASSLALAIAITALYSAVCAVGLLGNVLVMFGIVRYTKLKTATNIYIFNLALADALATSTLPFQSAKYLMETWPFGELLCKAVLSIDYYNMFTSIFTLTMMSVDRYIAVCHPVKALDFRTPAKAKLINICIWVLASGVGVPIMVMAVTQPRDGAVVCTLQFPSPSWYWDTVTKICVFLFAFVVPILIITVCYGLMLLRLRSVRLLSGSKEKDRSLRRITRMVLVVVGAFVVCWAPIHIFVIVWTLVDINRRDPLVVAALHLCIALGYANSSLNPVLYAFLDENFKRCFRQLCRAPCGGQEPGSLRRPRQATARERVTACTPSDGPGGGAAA

delta opioid receptor [2] = target: T2, delta opioid receptor (Mus musculus, UniProt P32300); test: [35S]GTPγS binding assay in NG108-15 cell membranes (delta opioid functional assay), 200 nM screen; assay type: biochemical; conditions: for EC50 / GTPγS δ-opioid receptor Rel Efficacy: NG108-15 cell membranes; for EC50: averages if tested more than once; for inhibition at 10 µM: read-out: GTPγS δ-opioid receptor % Inh @10 μM; for GTPγS δ-opioid receptor Rel Efficacy: relative efficacy from dose response
T2 construct: NG108-15 cell membranes were purchased from Applied Cell Sciences (Rockville, Md.); host or cells: NG108-15 cell membranes
T2 sequence (P32300 whole entry): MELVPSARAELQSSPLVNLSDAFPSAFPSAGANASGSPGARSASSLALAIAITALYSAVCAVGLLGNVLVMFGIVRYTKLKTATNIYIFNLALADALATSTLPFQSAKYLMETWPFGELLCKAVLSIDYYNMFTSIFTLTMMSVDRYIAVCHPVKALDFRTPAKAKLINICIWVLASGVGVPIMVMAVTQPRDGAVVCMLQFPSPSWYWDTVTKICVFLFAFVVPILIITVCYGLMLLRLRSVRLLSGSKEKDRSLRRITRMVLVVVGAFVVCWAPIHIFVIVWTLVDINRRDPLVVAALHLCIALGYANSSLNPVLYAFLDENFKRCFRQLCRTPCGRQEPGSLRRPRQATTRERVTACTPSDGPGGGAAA

mu opioid receptor = target: T3, mu opioid receptor (Rattus norvegicus, UniProt P33535); test: Rat brain mu opioid receptor binding assay; conditions: rat forebrain, [3H]DAMGO ligand
T3 construct: the forebrains were homogenized in Tris buffer in a Teflon®-glass homogenizer; from tissue; host or cells: forebrain of male Wistar rats, particulate (membrane) preparation
T3 sequence (P33535 whole entry): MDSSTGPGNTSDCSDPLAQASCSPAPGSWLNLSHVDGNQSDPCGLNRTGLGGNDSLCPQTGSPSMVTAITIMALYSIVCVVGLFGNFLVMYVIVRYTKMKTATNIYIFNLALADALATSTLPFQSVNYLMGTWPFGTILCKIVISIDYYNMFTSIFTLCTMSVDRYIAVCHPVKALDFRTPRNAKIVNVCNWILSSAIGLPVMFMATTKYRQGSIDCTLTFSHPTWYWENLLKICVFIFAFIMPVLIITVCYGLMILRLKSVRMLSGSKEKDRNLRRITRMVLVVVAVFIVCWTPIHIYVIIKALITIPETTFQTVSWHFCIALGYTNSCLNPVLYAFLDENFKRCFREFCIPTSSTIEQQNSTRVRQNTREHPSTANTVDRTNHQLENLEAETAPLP

delta opioid receptor [3] = target: T2, delta opioid receptor; test: NG108-15, 24-well delta opioid receptor binding assay; conditions: [3H]Naltrindole ligand, NG108-15 cell membranes; read-out: δ-binding NG108 cell membrane Ki
[4] = δ-binding (Naltrindole ligand) Ki, [3H]naltrindole ligand
[5] = read-out: GTPγS δ-opioid receptor EC50
[6] = GTPγS δ-opioid receptor EC50 (μM)
[7] = [3H]naltrindole ligand, read-out: δ-binding (Naltrindole ligand) Ki

Compound `N#Cc1cncc(-c2ncc(NC[C@@H]3CCCN3)c(Oc3ccc4ncsc4c3)n2)c1` [Cpd 86] has a Ki (delta opioid receptor [1]; [4]) of 2 nM, an EC50 (delta opioid receptor [2]; [5]) of 0.386 µM and a Ki (mu opioid receptor; read-out: μ-binding Ki) of 1180 nM.
For `O=C(c1ccc(Oc2nc(-c3cccnc3)ncc2NC[C@@H]2CCCN2)cc1)N1CCOCC1` [Cpd 161], the Ki (delta opioid receptor [3]) was 795 nM.
`O=C(c1ccc(Oc2nc(-c3cccnc3)ncc2NC[C@@H]2CCCN2)cc1)N1CCCCC1` [Cpd 160, Piperidin-1-yl-(4-{2-pyridin-3-yl-5-[(pyrrolidin-2-(S)-ylmethyl)-amino]-pyrimidin-4-yloxy}-phenyl)-methanone] was tested, and the Ki (delta opioid receptor [3]) was 338 nM.
In the case of `COc1ccc(Oc2nc(-c3ccnc(SC)n3)ncc2NC[C@@H]2CCCN2)cc1` [Cpd 66, [4-(4-Methoxy-phenoxy)-2′-methylsulfanyl-[2,4]bipyrimidinyl-5-yl]-pyrrolidin-2-(S)-ylmethyl-amine], the Ki (delta opioid receptor [1]; [4]) is reported as 10 nM, the EC50 (delta opioid receptor [2]; [5]) is reported as 0.568 µM and the inhibition at 10 µM (delta opioid receptor [2]) is reported as 5.77%. For the same compound, the Ki (mu opioid receptor; read-out: μ-binding Ki) was 390 nM.
For `COc1ccc(Oc2nc(-c3cnc(C#N)nc3)ncc2NC[C@@H]2CCCN2)cc1` [Cpd 121], the Ki (delta opioid receptor [1]; [4]) was 20 nM, the EC50 (delta opioid receptor [2]; [6]) was 0.019 µM and the “GTPγS δ-opioid receptor Rel Efficacy” value (delta opioid receptor [2]) was 1.010. For the same compound, the Ki (mu opioid receptor; μ-binding Ki) was 379 nM.
Work on `O=C(O)c1ccc(Oc2nc(-c3cncc(F)c3)ncc2NC[C@@H]2CCCN2)cc1` [Cpd 165] yielded a Ki (delta opioid receptor [3]) of 3760 nM.
In the case of `CCCOc1ccc(Oc2nc(-c3cncc(C#N)c3)ncc2NC[C@@H]2CCCN2)cc1` [Cpd 113], the Ki (delta opioid receptor [1]; [4]) is reported as 45 nM, the EC50 (delta opioid receptor [2]; [6]) is reported as 0.075 µM and the “GTPγS δ-opioid receptor Rel Efficacy” value (delta opioid receptor [2]) is reported as 1.104. For the same compound, the Ki (mu opioid receptor; μ-binding Ki) was 1430 nM.
Work on `COc1ccc(Oc2nc(-c3ccc4c(c3)CCO4)ncc2NC[C@@H]2CCCN2)cc1` [Cpd 63] yielded a Ki (delta opioid receptor [1]; [4]) of 37 nM, an EC50 (delta opioid receptor [2]; [5]) of 0.693 µM and a Ki (mu opioid receptor; read-out: μ-binding Ki) of 633 nM.
In the case of `COc1ccc(Oc2nc(-c3cncnc3)ncc2NC2CCCNC2)cc1` (stereo not drawn) [Cpd 109], the Ki (delta opioid receptor [1]; [4]) is reported as 1 nM, the EC50 (delta opioid receptor [2]; [6]) is reported as 0.057 µM and the “GTPγS δ-opioid receptor Rel Efficacy” value (delta opioid receptor [2]) is reported as 1.102. It also gave a Ki (mu opioid receptor; μ-binding Ki) of 522 nM.
In the case of `COc1ccc(Oc2nc(-c3cncnc3)ncc2NC[C@@H]2C[C@@H](F)CN2)cc1` [Cpd 80], the Ki (delta opioid receptor [1]; [4]) is reported as 2 nM, the EC50 (delta opioid receptor [2]; [5]) is reported as 0.113 µM and the Ki (mu opioid receptor; read-out: μ-binding Ki) is reported as 106 nM.
`CCOc1ncc(-c2ncc(NC[C@@H]3CCCN3)c(Oc3ccc(OC)cc3)n2)cn1` [Cpd 60] gave a Ki (delta opioid receptor [1]; [4]) of 14 nM, an EC50 (delta opioid receptor [2]; [6]) of 0.089 µM and an inhibition at 10 µM (delta opioid receptor [2]) of 3.73%. For the same compound, the “GTPγS δ-opioid receptor Rel Efficacy” value (delta opioid receptor [2]) was 0.926 and the Ki (mu opioid receptor; μ-binding Ki) was 1520 nM.
Compound `COc1ccc(Oc2nc(-c3cnc(OC)nc3OC)ncc2NC[C@@H]2CCCN2)cc1` [Cpd 58] has a Ki (delta opioid receptor [1]; [4]) of 4 nM, an EC50 (delta opioid receptor [2]; [5]) of 1.51 µM and an inhibition at 10 µM (delta opioid receptor [2]) of 12.8%. For the same compound, the Ki (mu opioid receptor; read-out: μ-binding Ki) was 640 nM.
With `COc1ccc(Oc2nc(-c3ccc(F)c(F)c3)ncc2NC[C@@H]2CCCN2)cc1` [Cpd 56] the Ki (delta opioid receptor [1]; [4]) was 15 nM, the EC50 (delta opioid receptor [2]; [5]) was 0.536 µM and the inhibition at 10 µM (delta opioid receptor [2]) was 26.3%. The Ki (mu opioid receptor; read-out: μ-binding Ki) was 1940 nM.
In the case of `COc1ccc(Oc2nc(-c3cncc(C#N)c3)ncc2NC[C@H]2CCCC[C@@H]2N)cc1` [Cpd 299], the Ki (delta opioid receptor [1]; [4]) is reported as 23 nM, the EC50 (delta opioid receptor [2]; [5]) is reported as 0.129 µM and the Ki (mu opioid receptor; read-out: μ-binding Ki) is reported as 222 nM.
For `COc1ccc(Oc2nc(-c3cnn(C)c3)ncc2NC[C@@H]2CCCN2)cc1` [Cpd 67], the Ki (delta opioid receptor [1]; [4]) was 1 nM, the EC50 (delta opioid receptor [2]; [5]) was 0.194 µM and the Ki (mu opioid receptor; read-out: μ-binding Ki) was 1560 nM.
Work on `CCOc1ccc(Oc2nc(-c3cncnc3)ncc2NC[C@@H]2CCCN2)cc1` [Cpd 105] yielded a Ki (delta opioid receptor [1]; [4]) of 3 nM, an EC50 (delta opioid receptor [2]; [5]) of 0.146 µM and a Ki (mu opioid receptor; read-out: μ-binding Ki) of 421 nM.
With `COc1ccc(Oc2nc(-c3cccc4ccccc34)ncc2NC[C@@H]2CCCN2)cc1` [Cpd 5] the Ki (delta opioid receptor [1]; [7]) was 157 nM, the EC50 (delta opioid receptor [2]; [5]) was 0.164 µM and the inhibition at 10 µM (delta opioid receptor [2]) was 18.1%. The “GTPγS δ-opioid receptor Rel Efficacy” value (delta opioid receptor [2]) was 0.803 and the Ki (mu opioid receptor; read-out: μ-binding Ki) was over 10000 nM.
`COc1ccc(Oc2nc(-c3ccccc3)ncc2NC[C@@H]2CCCN2)cc1` [Cpd 2] was tested, and the Ki (delta opioid receptor [1]; δ-binding (DPDPE ligand) Ki, [3H]DPDPE ligand) was 20 nM, the Ki (delta opioid receptor [1]; [4]) was 33 nM and the EC50 (delta opioid receptor [2]; [6]) was 0.43 µM and 0.069 µM. For the same compound, the inhibition at 10 µM (delta opioid receptor [2]) was 5.79%, the “GTPγS δ-opioid receptor Rel Efficacy” value (delta opioid receptor [2]) was 0.733 and the Ki (mu opioid receptor; μ-binding Ki) was 3140 nM and 3390 nM.
For `COc1ccc(Oc2nc(-c3ccc4[nH]ccc4c3)ncc2NC[C@@H]2CCCN2)cc1` [Cpd 34], the Ki (delta opioid receptor [1]; [4]) was 15 nM and the Ki (mu opioid receptor; μ-binding Ki) was 15 nM.
`COc1ccc(Oc2nc(-c3cccc4nc(C)ccc34)ncc2NC[C@@H]2CCCN2)cc1` [Cpd 18] was tested, and the Ki (delta opioid receptor [1]; [7]) was 172 nM and the Ki (mu opioid receptor; read-out: μ-binding Ki) was 2240 nM.
Compound `COc1ccc(Oc2nc(-c3ccc(OC)c(F)c3)ncc2NC[C@@H]2CCCN2)cc1` [Cpd 64] has a Ki (delta opioid receptor [1]; [4]) of 8 nM, an EC50 (delta opioid receptor [2]; [6]) of 0.088 µM and an inhibition at 10 µM (delta opioid receptor [2]) of 12%. The “GTPγS δ-opioid receptor Rel Efficacy” value (delta opioid receptor [2]) was 0.830 and the Ki (mu opioid receptor; μ-binding Ki) was 466 nM.
With `COc1ccc(Oc2nc(-c3ccc4c(c3)OCO4)ncc2NC[C@@H]2CCCN2)cc1` [Cpd 93] the Ki (delta opioid receptor [1]; [4]) was 8 nM, the EC50 (delta opioid receptor [2]; [6]) was 0.072 µM and the “GTPγS δ-opioid receptor Rel Efficacy” value (delta opioid receptor [2]) was 1.115. For the same compound, the Ki (mu opioid receptor; μ-binding Ki) was 554 nM.
`COc1cccc(Oc2nc(-c3cncc(C#N)c3)ncc2NC[C@@H]2CCCN2)c1` [Cpd 98] was tested, and the Ki (delta opioid receptor [1]; [4]) was 3 nM and the Ki (mu opioid receptor; read-out: μ-binding Ki) was 102 nM.
`Nc1ccc(Oc2nc(-c3cccnc3)ncc2NC[C@@H]2CCCN2)cc1` [Cpd 46] was tested, and the Ki (delta opioid receptor [1]; [4]) was 27 nM and the Ki (mu opioid receptor; read-out: μ-binding Ki) was 3550 nM.
`FC(F)(F)Oc1ccc(Oc2nc(-c3cccnc3)ncc2NC[C@@H]2CCCN2)cc1` [Cpd 11] showed a Ki (delta opioid receptor [1]; [4]) of 5 nM and a Ki (mu opioid receptor; read-out: μ-binding Ki) of 3080 nM.
Compound `COc1ccc(Oc2nc(-c3cnc(N(C)C)nc3)ncc2NC[C@@H]2CCCN2)cc1` [Cpd 82] has a Ki (delta opioid receptor [1]; [4]) of 28 nM and a Ki (mu opioid receptor; read-out: μ-binding Ki) of 1050 nM.
For `COc1ccc(Oc2nc(-c3ccc(N)nc3)ncc2NC[C@@H]2CCCN2)cc1` [Cpd 72], the Ki (delta opioid receptor [1]; [7]) was 2 nM, the EC50 (delta opioid receptor [2]; [5]) was 0.105 µM and the inhibition at 10 µM (delta opioid receptor [2]) was 15.2%. For the same compound, the “GTPγS δ-opioid receptor Rel Efficacy” value (delta opioid receptor [2]) was 0.905 and the Ki (mu opioid receptor; read-out: μ-binding Ki) was 732 nM.
